Test systems include UO-31 renal; OVCAR-5 ovarian; A549 NSCLC; UACC-257 melanoma; OVCAR-4 ovarian; SK-MEL-5 melanoma; SNB-19 CNS; KM12 colon; HOP-92 NSCLC; HCT-116 colon.
Holding throughout (test): NCI anticancer screen, dose series, 48 h

The results in this text go back to PubChem BioAssay (NCI).

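Tested at 5 concentrations; 48 h exposure; 96-well plates; endpoints linearly interpolated, else capped at highest concentration. Abbreviation: GI50, concentration required for 50% inhibition of growth. TGI marks complete inhibition of growth.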

`N#CC1CCCCCCCCCCC(=O)N(CCCl)C1=O` (centres undefined): the TGI in the experiment on UO-31 renal, in the experiment with OVCAR-5 ovarian, in the experiment on A549 NSCLC, in the experiment with UACC-257 melanoma, in the experiment on OVCAR-4 ovarian and with SK-MEL-5 melanoma was above 100 µM each time. In addition, the TGI with SNB-19 CNS, in the experiment on KM12 colon and with HOP-92 NSCLC was above 100 µM throughout.

`CCNC(=O)O[C@H]1CN[C@H](C#Cc2cc3ncnc(Nc4ccc(OCc5cccc(F)c5)c(Cl)c4)c3s2)C1`: the GI50 in the experiment with UO-31 renal is 1.49 µM; in the experiment with OVCAR-5 ovarian, 8.98 µM; in the experiment with A549 NSCLC, 5.29 µM; in the experiment with UACC-257 melanoma, above 22.7 µM; with OVCAR-4 ovarian, 9.94 µM; in the experiment on SK-MEL-5 melanoma it was 10.2 µM. The GI50 with SNB-19 CNS is 16.2 µM; in the experiment with KM12 colon it was 6.59 µM; with HOP-92 NSCLC, 0.83 µM; in the experiment with HCT-116 colon, 7.43 µM. Besides, the TGI was above 18.4 µM with UO-31 renal; above 25 µM in the experiment with OVCAR-5 ovarian; above 25 µM in the experiment on A549 NSCLC; above 25 µM in the experiment on UACC-257 melanoma; above 25 µM in the experiment with OVCAR-4 ovarian; above 25 µM in the experiment on SK-MEL-5 melanoma. The TGI was above 25 µM in the experiment with SNB-19 CNS, above 23.1 µM in the experiment with KM12 colon, 11.4 µM in the experiment on HOP-92 NSCLC and above 25 µM in the experiment on HCT-116 colon.

Take `Cc1cccc(C)c1NC(=O)C(=O)Nn1c(NN)nc2ccccc2c1=O`: the TGI in the experiment on UO-31 renal, in the experiment with OVCAR-5 ovarian, with A549 NSCLC, in the experiment with UACC-257 melanoma, in the experiment on OVCAR-4 ovarian and in the experiment with SK-MEL-5 melanoma was above 100 µM each time. In addition, the TGI in the experiment on SNB-19 CNS, in the experiment with KM12 colon, with HOP-92 NSCLC and in the experiment on HCT-116 colon was above 100 µM each time.

On to `N#CC1(C#N)C(C#N)(C#N)C12CCCCCC2`, for which the TGI was 32.8 µM in the experiment on UO-31 renal; 30 µM in the experiment with OVCAR-5 ovarian; 21.4 µM in the experiment on A549 NSCLC; 27.4 µM in the experiment with UACC-257 melanoma; 30 µM in the experiment with OVCAR-4 ovarian; 36.7 µM in the experiment on SK-MEL-5 melanoma. Also, the TGI was above 87.8 µM in the experiment with SNB-19 CNS, 19.3 µM in the experiment with KM12 colon, 29.4 µM with HOP-92 NSCLC and 17.5 µM with HCT-116 colon.

In the case of `Cc1ccc(Cl)cc1NC(=O)c1sc2nc3c(cc2c1N)C(=O)CCC3`, the GI50 in the experiment on UO-31 renal was above 100 µM; in the experiment with OVCAR-5 ovarian, above 100 µM; in the experiment with A549 NSCLC it was 3.85 µM; in the experiment on UACC-257 melanoma it was 7.3 µM; in the experiment on OVCAR-4 ovarian, above 100 µM; in the experiment on SK-MEL-5 melanoma, 3.48 µM. Besides, the GI50 in the experiment on SNB-19 CNS is 5.64 µM; with KM12 colon it was 3.65 µM; with HOP-92 NSCLC it was above 100 µM; with HCT-116 colon, 5.97 µM. Also, the TGI in the experiment on UO-31 renal, in the experiment with OVCAR-5 ovarian, in the experiment on A549 NSCLC, with UACC-257 melanoma, in the experiment on OVCAR-4 ovarian and with SK-MEL-5 melanoma was above 100 µM in each case. The TGI in the experiment with SNB-19 CNS, in the experiment on KM12 colon, with HOP-92 NSCLC and in the experiment with HCT-116 colon was above 100 µM each time.

As for `CCN1CCN(CC(=O)N2c3cccc4cccc(c34)N(C(=O)CN3CCN(CC)CC3)C2c2cn(-c3ccccc3)nc2-c2cccc([N+](=O)[O-])c2)CC1`, the GI50 in the experiment on UO-31 renal was 1.34 µM; with OVCAR-5 ovarian, 1.8 µM; in the experiment on UACC-257 melanoma, 1.85 µM; in the experiment with OVCAR-4 ovarian it was 1.79 µM; with SK-MEL-5 melanoma, 1.75 µM; with SNB-19 CNS, 1.66 µM. Moreover, the results for the GI50 in the experiment with KM12 colon, with HOP-92 NSCLC and in the experiment with HCT-116 colon were 1.72 µM, 0.671 µM and 1.27 µM, respectively. The TGI with UO-31 renal is 2.73 µM; with OVCAR-5 ovarian it was 3.45 µM; in the experiment with UACC-257 melanoma, 3.68 µM; in the experiment with OVCAR-4 ovarian it was 3.71 µM; in the experiment on SK-MEL-5 melanoma it was 3.21 µM; in the experiment on SNB-19 CNS it was 3.42 µM. Moreover, the values for the TGI in the experiment with KM12 colon, in the experiment on HOP-92 NSCLC and in the experiment with HCT-116 colon were 3.28 µM, 2.49 µM and 2.83 µM, respectively.

As for `COc1cc2c(cc1OC)/C(=C\c1ccccc1N)C(=O)OC2`, the TGI in the experiment with UO-31 renal amounted to 32.7 µM; in the experiment with OVCAR-5 ovarian, 35.4 µM; in the experiment with A549 NSCLC it was 60.1 µM; in the experiment on UACC-257 melanoma, 34.3 µM; with OVCAR-4 ovarian, 29 µM; with SK-MEL-5 melanoma, 32.6 µM. Further, the TGI in the experiment on SNB-19 CNS is 32.5 µM; in the experiment on KM12 colon it was 31.3 µM; in the experiment on HOP-92 NSCLC, 27.6 µM.

Regarding `O=c1c(O)c(-c2cc(O)c(O)c(O)c2)oc2cc(O)cc(O)c12`, the TGI in the experiment with UO-31 renal is above 100 µM; in the experiment with OVCAR-5 ovarian, above 100 µM; in the experiment with A549 NSCLC it was above 100 µM; in the experiment on UACC-257 melanoma, above 100 µM; in the experiment with OVCAR-4 ovarian, 30.2 µM; in the experiment on SK-MEL-5 melanoma, above 100 µM. The TGI is 33.1 µM in the experiment with KM12 colon, above 100 µM in the experiment with HOP-92 NSCLC and 34.1 µM with HCT-116 colon.

For the molecule `COC(=O)Nc1nc2ccc(Br)cc2[nH]1`, the TGI with UO-31 renal, in the experiment on OVCAR-5 ovarian, in the experiment with A549 NSCLC, in the experiment with UACC-257 melanoma, in the experiment with OVCAR-4 ovarian and in the experiment on SK-MEL-5 melanoma was above 100 µM in each case. For the same molecule, the TGI with KM12 colon, with HOP-92 NSCLC and in the experiment with HCT-116 colon was above 100 µM each time.
